For series [1], the system named is MRSA-1, methicillin-resistant S. aureus (clinically isolated, No.1). Format: cell-based, Staphylococcus aureus. As to conditions: for MIC: -1, methicillin-resistant (clinically isolated, No.1); for MBC: -1, methicillin-resistant (clinically isolated, No.1, 24 h). From the text: (§1) The strains were used in the experiments, including Gram-positive bacteria Staphylococcus aureus (ATCC 25923), Bacillus subtilis (ATCC 6633), Streptococcus mutans (ATCC 25175), Methicillin-resistant Staphylococcus aureus (ATCC 43300), Methicillin-resistant Staphylococcus aureus 1–3 (clinically isolated, number 1–3), Gram-negative bacteria Escherichia coli (ATCC 25922), E. coli (D 31), Pseudomonas aeruginosa (ATCC 15442), P. aeruginosa PAO1 (wild type), and the fungus Candida albicans (ATCC 10231). S. mutans was cultured in Brain Heart Infusion Broth (BHI, Beijing Land Bridge, China) under anaerobic condition; C. albicans was grown in Sabouraud Dextrose Broth (SDB, HuanKai Microbial, Guangzhou, China); and the other bacterial strains were grown in Tryptic Soy Broth (TSB, HuanKai Microbial, Guangzhou, China). All bacteria and fungi were cultivated to the logarithmic phase at 37 °C before experiments were performed.
(§2) The antimicrobial activities of the peptides were measured by the two-fold dilution method. Each strain was inoculated in the medium and cultivated to the logarithmic phase. A series of diluted peptides (concentrations of 3.1–100 μM, 50 μL) were prepared in a 96-well plate (Corning, New York, NY, USA), and the same volume of the bacterial suspension (the final concentration of 1 × 10^6 CFU/mL) was added. After incubation at 37 °C for 18–24 h, the absorbance at 600 nm was measured by using a microplate reader (Multiskan Spectrum, BioTek, Winuski, VT, USA). […] All tests were performed in triplicate independent experiments.
(§3) From the MIC measuring plates, 50 μL of bacteria suspension in the presence of peptides when the concentrations were equal and up to MICs was spread on the BHI agar medium, and incubated at 37 °C for 24 h. The peptide concentration with no bacterial growth was defined as MBC [33].

Series [2] concerns MRSA-2, methicillin-resistant S. aureus (clinically isolated, No.2). Type of series: cell-based, Staphylococcus aureus. As to conditions: for MIC: -2, methicillin-resistant (clinically isolated, No.2); for MBC: -2, methicillin-resistant (clinically isolated, No.2, 24 h).
Excerpt: as §1, §2, §3

In series [3] the test system is MRSA-3, methicillin-resistant S. aureus (clinically isolated, No.3). Format: cell-based, Staphylococcus aureus. As to conditions: for MIC: -3, methicillin-resistant (clinically isolated, No.3); for MBC: -3, methicillin-resistant (clinically isolated, No.3, 24 h).
Excerpt: as §1, §2, §3

The test system of series [4] is methicillin-resistant S. aureus (ATCC 43300). Type of series: cell-based, Staphylococcus aureus. As to conditions: for MIC: ATCC 43300; for MBC: ATCC 43300, 24 h.
Excerpt: as §1, §2, §3

Series [5] deals with Bacillus subtilis (ATCC 6633). Format: cell-based. As to conditions: for MIC: ATCC 6633; for MBC: ATCC 6633, 24 h.
Excerpt: as §1, §2, §3

The test system of series [6] is Candida albicans (ATCC 10231). Type of series: cell-based. As to conditions: for MIC: ATCC 10231; for MBC: ATCC 10231, 24 h.
Excerpt: as §1, §2, §3

Series [7] has as its system Escherichia coli (ATCC 25922). Format: cell-based. As to conditions: for MIC: ATCC 25922; for MBC: ATCC 25922, 24 h.
Excerpt: as §1, §2, §3

Series [8] deals with Pseudomonas aeruginosa (ATCC 15442). Type of series: cell-based. As to conditions: for MIC: ATCC 15442; for MBC: ATCC 15442, 24 h.
Excerpt: as §1, §2, §3

The test system of series [9] is Staphylococcus aureus (ATCC 25923). Type of series: cell-based. As to conditions: for MIC: ATCC 25923; for MBC: ATCC 25923, 24 h.
Excerpt: as §1, §2, §3

The test system of series [10] is Streptococcus mutans (ATCC 25175). Type of series: cell-based. As to conditions: for MIC: ATCC 25175; for MBC: ATCC 25175, 24 h.
Excerpt: as §1, §2, §3

For series [11], the system named is E. coli (D31), anti-streptomycin strain. Type of series: cell-based, Escherichia coli. As to conditions: 37 °C; for MIC: TSB, 1 × 10^6 CFU/mL, 18–24 h, absorbance 600 nm, triplicate, first value of cell; for MBC: plated from MIC wells on agar, 24 h, no growth, second value of cell.
Excerpt: as §1, §2, §3

Series [12] deals with P. aeruginosa PAO1 (wild type). Format: cell-based, Pseudomonas aeruginosa. As to conditions: for MIC: PAO1; for MBC: PAO1, 24 h.
Excerpt: as §1, §2, §3

In a further series the test system is S. mutans biofilms. Type of series: cell-based, Streptococcus mutans. As to conditions: S. mutans in BHI with 1% sucrose, 24 h anaerobic, CV staining, absorbance 590 nm. The protocol:
CV was used to detect the effects of the peptides on the formation of biofilm and the eradication of mature biofilm. 100 μL of S. mutans in the logarithmic phase was diluted in BHI (containing 1% sucrose) to the concentration of 2 × 10^6 CFU/mL. The suspensions were added to the equal volume of the peptides (the final concentrations of 0.8–12.5 μM). After incubation at 37 °C under anaerobic conditions for 24 h, the supernatant was discarded. The plate was irrigated with PBS carefully to wash away the planktonic bacteria. After fixing with anhydrous methanol for 15 min, 0.5% CV was added to each well for staining the biofilms. The excess CV was washed away by PBS (pH 7.2), and the bound CV was dissolved with anhydrous methanol. A microplate reader (Multiskan Spectrum, BioTek, Winuski, VT, USA) was used to measure the absorbance value of 590 nm. MBIC50 was defined as the lowest peptide concentration that inhibited 50% of biofilm formation.

Series [13] relates to S. mutans mature biofilms. The series is described as follows: Mature biofilm eradication, crystal violet. Type of series: cell-based, Streptococcus mutans. As to conditions: 24 h mature S. mutans biofilms, 24 h treatment, CV staining, absorbance 590 nm. The protocol: To evaluate the ability of the peptides to eradicate the mature biofilms of S. mutans, the bacteria (the final concentration of 1 × 10^6 CFU/mL) were seeded in a flat bottom 96-well plate for 24 h to obtain the mature biofilms. The planktonic bacteria were washed away, and the peptides with the concentrations of 3.1–50 μM were added. After treatment for 24 h, CV was used for staining and quantification as described above. The biofilms untreated with the peptides served as the negative control. MBEC50 was defined as the lowest peptide concentration that removed 50% of the mature biofilm.

In series [14] the test system is Human red blood cells (hRBCs). Type of series: cell-based. The protocol: The hemolytic toxicity of the peptides was determined as described. Human red blood cells (hRBCs) were washed with phosphate-buffered saline (PBS, pH 7.2) and centrifuged at 1000× g for 10 min at 4 °C until the supernatant was clear. 4% hRBCs and an equal volume of the peptides with different concentrations were incubated at 37 °C for 1 h. After incubation, the supernatant was collected by centrifugation, and 150 μL was transferred to a new 96-well plate (Corning, New York, NY, USA). The absorbance at 450 nm was measured. The 0.1% Triton X-100 was used as the positive control, and PBS was used as the negative control. The minimum hemolysis concentration (MHC) was defined as the lowest concentration of peptide that causes 10% hemolysis, and HL50 was the lowest concentration that causes 50% hemolysis. CSI was defined as the ratio of HL50 to MIC [31].

No end group written: not given here.

As for FLQRIIRALGRLF [GHaR7R], the MIC in [1] was 6.2 µM; in series [2], 6.2 µM; in series [3] it was 6.2 µM; in series [4], 3.1 µM; in series [5], over 50 µM; in series [6] it was 25 µM. The MIC was 3.1 µM in [7]; over 50 µM in series [8]; 3.1 µM in [9]; 6.2 µM in [10]; 12.5 µM in series [11]; over 50 µM in series [12]. For the same sequence, the MBC is 25 µM in series [1]; 50 µM in series [2]; 25 µM in series [3]; 6.2 µM in [4]; over 50 µM in series [5]; 25 µM in series [6]. Moreover, the MBC in [7] was 12.5 µM; in series [8] it was over 50 µM; in series [9], 3.1 µM; in series [10], 12.5 µM; in series [11], 50 µM; in series [12] it was over 50 µM. Further, the “MBIC50 (lowest peptide concentration that inhibited 50% of biofilm formation)” value in the series on S. mutans biofilms amounted to 6.2 µM. In series [13], the “MBEC50 (lowest peptide concentration that removed 50% of the mature biofilm)” value is 25 µM.
On to FLQRIIGALGRLF [GHaR], for which the MIC in [1] worked out at 3.1 µM; in series [2], 6.2 µM; in series [3] it was 3.1 µM; in series [4], 3.1 µM; in [6], 12.5 µM; in series [7], 6.2 µM. Moreover, the MIC amounted to 6.2 µM in [8], 1.6 µM in series [9], 3.1 µM in series [10] and 25 µM in [12]. The MBC was 25 µM in [1]; 12.5 µM in [2]; 6.2 µM in [3]; 3.1 µM in [4]; 50 µM in [6]; 6.2 µM in [7]. For the same sequence, the MBC turned out to be 6.2 µM in series [8], 1.6 µM in [9], 6.2 µM in [10] and 50 µM in [12].
Consider FLQRIIGAWGRLF [GHaR9W], for which, in series [14], the “HL50 relative to that of GHaR” value was 1–5 times higher. The MIC in series [1] was 6.2 µM; in [2], 6.2 µM; in [3], 6.2 µM; in [4], 6.2 µM; in [6], 25 µM; in [7], 12.5 µM. Moreover, the MIC is over 50 µM in series [8], 3.1 µM in series [9], 6.2 µM in series [10] and 25 µM in series [12]. The MBC in [1] was 12.5 µM; in series [2] it was 12.5 µM; in [3], 12.5 µM; in [4], 12.5 µM; in [6], 25 µM; in series [7], 12.5 µM. The MBC in series [8] was over 50 µM; in series [9] it was 6.2 µM; in [10], 6.2 µM; in series [12], 50 µM.
In the case of FLQRIIGARGRLF [GHaR9R], the MIC in series [1], in [2], in [3], in series [4], in [5] and in [6] was over 50 µM each time. Besides, the MIC was over 50 µM in series [7]; over 50 µM in [8]; 6.2 µM in series [9]; over 50 µM in [10]; over 50 µM in series [12]. Further, the MBC in [1], in series [2], in series [3], in series [4], in [5] and in series [6] was over 50 µM throughout. Also, the MBC is over 50 µM in series [7]; over 50 µM in [8]; 12.5 µM in series [9]; over 50 µM in [10]; over 50 µM in series [12].
Take FLQRIRGALGRLF [GHaR6R]: the time to complete eradication is under 15 min. In series [14], the “HL50 relative to that of GHaR” value is reported as 1–5 times higher. In series [1], this sequence came in with an MIC of 12.5 µM and an MBC of 25 µM. In series [2], this sequence showed an MIC of 12.5 µM and an MBC of 25 µM. Besides, in series [3], the MIC came to 6.2 µM and the MBC was determined as 25 µM. In series [4], this sequence displayed an MIC of 6.2 µM and an MBC of 12.5 µM. Besides, in [5], the MIC is 25 µM and the MBC was 50 µM. In series [6], this sequence yielded a minimal inhibitory concentration (MIC) of 50 µM and an MBC of 50 µM. In series [7], this sequence yielded a minimal inhibitory concentration (MIC) of 12.5 µM and an MBC of 12.5 µM. In [8], this sequence gave an MIC of over 50 µM and an MBC of over 50 µM. In series [9], this sequence gave an MIC of 3.1 µM and an MBC of 12.5 µM. Also, in series [10], the lowest concentration to inhibit growth (MIC) was 12.5 µM and the MBC was found to be 12.5 µM. In series [11], the minimum inhibitory concentration (MIC) was determined as 25 µM and the MBC is 50 µM. For the same sequence, in [12], the MIC is 3.1 µM and the MBC is 25 µM. Further, the “MBIC50 (lowest peptide concentration that inhibited 50% of biofilm formation)” value with S. mutans biofilms stood at 6.2 µM. For the same sequence, the “MBEC50 (lowest peptide concentration that removed 50% of the mature biofilm)” value in [13] turned out to be 25 µM.

The MIC is the lowest concentration found to suppress growth. The low end stands for inhibition by little substance, the high end for a need for much substance.
